26 compounds from patent publication US20220340875A1, “METHODS OF CULTURING AND/OR EXPANDING STEM CELLS AND/OR LINEAGE COMMITTED PROGENITOR CELLS USING AMIDO COMPOUNDS” (IDEAYA BIOSCIENCES, INC., priority 2018, published 2022) can be followed below.

For orientation: IC50 means the concentration that inhibits the measured activity by half. Higher therefore signals weaker potency in that assay.

The target of this experiment is T1, hAhR (Homo sapiens, UniProt P35869).
T1 construct: Stably integrated DRE-luciferase cell lines were generated by transducing the both cell lines with Cignal XRE luciferase reporter (Qiagen) lentiviral particles; endogenous in cells
T1 sequence (P35869 11-848): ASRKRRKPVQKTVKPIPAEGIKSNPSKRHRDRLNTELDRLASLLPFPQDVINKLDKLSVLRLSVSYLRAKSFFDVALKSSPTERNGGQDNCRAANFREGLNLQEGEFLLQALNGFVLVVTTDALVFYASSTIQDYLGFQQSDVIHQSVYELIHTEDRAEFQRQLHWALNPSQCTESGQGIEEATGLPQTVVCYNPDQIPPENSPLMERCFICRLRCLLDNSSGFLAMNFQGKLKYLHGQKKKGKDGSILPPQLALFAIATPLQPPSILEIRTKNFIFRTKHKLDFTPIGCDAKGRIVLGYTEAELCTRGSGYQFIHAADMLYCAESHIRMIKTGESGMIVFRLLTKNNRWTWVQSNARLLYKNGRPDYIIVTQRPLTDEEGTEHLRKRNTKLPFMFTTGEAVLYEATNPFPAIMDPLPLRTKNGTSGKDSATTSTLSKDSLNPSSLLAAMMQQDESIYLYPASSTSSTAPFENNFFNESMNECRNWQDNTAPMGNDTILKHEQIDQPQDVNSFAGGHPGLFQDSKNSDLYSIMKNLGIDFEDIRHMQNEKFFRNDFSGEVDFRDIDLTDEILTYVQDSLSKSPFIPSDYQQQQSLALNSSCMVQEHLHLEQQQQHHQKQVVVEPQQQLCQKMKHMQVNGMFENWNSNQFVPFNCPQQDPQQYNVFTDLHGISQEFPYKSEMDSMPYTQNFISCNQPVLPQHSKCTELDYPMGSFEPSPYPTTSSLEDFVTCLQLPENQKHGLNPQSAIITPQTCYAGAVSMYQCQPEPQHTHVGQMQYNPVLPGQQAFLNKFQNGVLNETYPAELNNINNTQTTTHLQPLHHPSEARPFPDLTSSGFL
The experiment is described as follows: AhR DRE-luciferase reporter transcriptional assay, antagonist mode (TCDD-induced). Conditions: HEPG2 DRE-Luc cells, 3 nM TCDD, 24 hour incubation, relative IC50. It is filed as cell-based. In a few lines: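 HepG2 cells carrying a stably integrated DRE-luciferase reporter, in OptiMEM with 0.5% FBS; semi-log compound doses added with 3 nM TCDD, 24 h incubation, firefly luciferase read-out. Percent maximal activity normalised between vehicle ± TCDD; relative IC50 taken as half-reduction between curve plateaus.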
(A reporter such as luciferase makes a cellular process visible.)
Regarding `Cc1cc(-c2ccc3c(ccn3C)c2)ccc1NC(=O)c1ccnn1C` [Example 083, 1-methyl-N-(2-methyl-4-(1-methyl-1H-indol-5-yl)phenyl)-1H-pyrazole-5-carboxamide], the half-inhibitory concentration (IC50) lay within 500 to 1000 nM.
With `Cc1cc(NC(=O)c2ccnn2C)cnc1-c1ccc2cc(F)ccc2n1` [Example 046, N-(6-(6-fluoroquinolin-2-yl)-5-methylpyridin-3-yl)-1-methyl-1H-pyrazole-5-carboxamide], the IC50 lay within 500 to 1000 nM.
The same measure for `Cc1c(-c2ncc3cc(C(F)(F)F)ccc3n2)ccc(NC(=O)c2ccnn2C)c1F` [Example 113, N-(2-fluoro-3-methyl-4-(6-(trifluoromethyl)quinazolin-2-yl)phenyl)-1-methyl-1H-pyrazole-5-carboxamide]: 200 to 500 nM; for `CN(C(=O)c1ccnn1C)c1ccc(-c2ncc3cc(C(F)(F)F)ccc3n2)cc1` [Example 218, N,1-dimethyl-N-(4-(6-(trifluoromethyl)quinazolin-2-yl)phenyl)-1H-pyrazole-5-carboxamide]: under 200 nM.
The same measure for `COc1cnccc1C(=O)N(C)c1ccc(-c2ncc3nc(C(F)(F)F)cc(C)c3n2)cc1C` [Example 183, 3-methoxy-N-methyl-N-(2-methyl-4-(8-methyl-6-(trifluoromethyl)-pyrido[3,2-d]pyrimidin-2-yl)phenyl)isonicotinamide]: under 200 nM; for `Cc1cc(C(=O)Nc2ccc(-c3ncc4nc(C(F)(F)F)cc(C)c4n3)cc2F)ccn1` [Example 164, N-(2-fluoro-4-(8-methyl-6-(trifluoromethyl)pyrido[3,2-d]pyrimidin-2-yl)phenyl)-2-methylisonicotinamide]: under 200 nM.
Next, `Cc1cc(-c2ccc3cc(C4CC4)ccc3n2)ccc1NC(=O)c1ccnn1C` [Example 068, N-(4-(6-cyclopropylquinolin-2-yl)-2-methylphenyl)-1-methyl-1H-pyrazole-5-carboxamide]: 1000 to 10000 nM; `Cc1cc(-c2ncc3nc(C(F)(F)F)ccc3n2)ccc1NC(=O)c1ccnn1C` [Example 135, 1-methyl-N-(2-methyl-4-(6-(trifluoromethyl)pyrido[3,2-d]pyrimidin-2-yl)phenyl)-1H-pyrazole-5-carboxamide]: under 200 nM; `Cc1cc(-c2ccc3cncc(Cl)c3c2)ccc1NC(=O)c1ccnn1C` [Example 060, N-(4-(4-chloroisoquinolin-6-yl)-2-methylphenyl)-1-methyl-1H-pyrazole-5-carboxamide]: 200 to 500 nM.
In turn, `Cc1cc(-c2ncc3cc(C(F)(F)F)ccc3n2)ccc1N(C)C(=O)c1cc(C(N)=O)nn1C` [Example 222, N5,1-dimethyl-N5-(2-methyl-4-(6-(trifluoromethyl)quinazolin-2-yl)phenyl)-1H-pyrazole-3,5-dicarboxamide] gave an IC50 of under 200 nM.
The same measure for `Cc1cc(-c2ncc3nc(C(F)(F)F)cc(C)c3n2)ccc1NC(=O)c1ccnc(C(N)=O)c1` [Example 166, N4-(2-methyl-4-(8-methyl-6-(trifluoromethyl)pyrido[3,2-d]pyrimidin-2-yl)phenyl)pyridine-2,4-dicarboxamide]: under 200 nM.
Next, `Cc1cc(-c2ccc3cccc(C)c3n2)ccc1NC(=O)OC(C)(C)C` [Example 017, tert-butyl (2-methyl-4-(8-methylquinolin-2-yl)phenyl)carbamate]: 1000 to 10000 nM; `Cc1cc(C(=O)N(C)c2ccc(-c3ncc4cc(C(F)(F)F)ccc4n3)cc2C)ccn1` [Example 120, N,2-dimethyl-N-(2-methyl-4-(6-(trifluoromethyl)quinazolin-2-yl)phenyl)isonicotinamide]: under 200 nM.
Next, `Cc1cc(-c2ncc3cc(C(F)(F)F)ccc3n2)ccc1N(C)C(=O)OC(C)(C)C` [Example 009, tert-butyl methyl(2-methyl-4-(6-(trifluoromethyl)quinazolin-2-yl)phenyl)carbamate]: 500 to 1000 nM; `Cc1cc(-c2ncc3nc(C(F)(F)F)cc(C)c3n2)ccc1N(C)C(=O)c1ccnc(C(N)=O)c1` [Example 168, N4-methyl-N4-(2-methyl-4-(8-methyl-6-(trifluoromethyl)pyrido[3,2-d]pyrimidin-2-yl)phenyl)pyridine-2,4-dicarboxamide]: under 200 nM.
`Cc1cc(-c2ncc3nc(C(F)(F)F)ccc3n2)ccc1NC(=O)c1ccnn1CC(C)O` (centres unmarked) [Example 193, 1-(2-hydroxypropyl)-N-(2-methyl-4-(6-(trifluoromethyl)pyrido[3,2-d]pyrimidin-2-yl)phenyl)-1H-pyrazole-5-carboxamide] gave an IC50 of 500 to 1000 nM.
The same measure for `Cc1cc(-c2ccc3c(C(F)(F)F)cn(C)c3c2)ccc1N(C)C(=O)c1ccnn1C` [Example 087, N,1-dimethyl-N-(2-methyl-4-(1-methyl-3-(trifluoromethyl)-1H-indol-6-yl)phenyl)-1H-pyrazole-5-carboxamide]: 1000 to 10000 nM.
`Cc1cc(N(C)C(=O)c2ccnn2C)c(C)cc1-c1ncc2nc(C(F)(F)F)ccc2n1` [Example 188, N-(2,5-dimethyl-4-(6-(trifluoromethyl)pyrido[3,2-d]pyrimidin-2-yl)phenyl)-N,1-dimethyl-1H-pyrazole-5-carboxamide] yielded an IC50 of under 200 nM.
The same measure for `Cc1cc(-c2ccc3ncn(C)c3c2)ccc1NC(=O)c1ccnn1C` [Example 089, 1-Methyl-N-(2-methyl-4-(1-methyl-1H-benzo[d]imidazol-6-yl)phenyl)-1H-pyrazole-5-carboxamide]: 1000 to 10000 nM.
The same measure for `Cn1nccc1C(=O)Nc1ccc(-c2ccc3cc(F)ccc3n2)cc1C(F)(F)F` [Example 048, N-(4-(6-fluoroquinolin-2-yl)-2-(trifluoromethyl)phenyl)-1-methyl-1H-pyrazole-5-carboxamide]: 1000 to 10000 nM; for `Cc1cc(C(=O)Nc2ccc(-c3ncc4cc(C(F)(F)F)ccc4n3)cc2C)c(C)cn1` [Example 125, 2,5-dimethyl-N-(2-methyl-4-(6-(trifluoromethyl)quinazolin-2-yl)phenyl)isonicotinamide]: under 200 nM; for `Cn1nccc1C(=O)Nc1ccc(-c2ccc3cc(F)ccc3n2)cc1OC(F)(F)F` [Example 047, N-(4-(6-fluoroquinolin-2-yl)-2-(trifluoromethoxy)phenyl)-1-methyl-1H-pyrazole-5-carboxamide]: 1000 to 10000 nM.
Next, `Cc1cc(-c2ncc3nc(C(F)(F)F)cc(C)c3n2)ccc1N(C)C(=O)c1ccnn1C` [Example 148, N,1-Dimethyl-N-(2-methyl-4-(8-methyl-6-(trifluoromethyl)pyrido[3,2-d]pyrimidin-2-yl)phenyl)-1H-pyrazole-5-carboxamide]: under 200 nM; `Cc1cc(-c2ccc3cc(C(F)(F)F)ccc3n2)cc(F)c1NC(=O)c1ccnn1C` [Example 008, N-(2-fluoro-6-methyl-4-(6-(trifluoromethyl)quinolin-2-yl)phenyl)-1-methyl-1H-pyrazole-5-carboxamide]: under 200 nM.
Consider `Cc1cc(-c2ncc3cc(C(F)(F)F)ccc3n2)ccc1N(C)C(=O)c1ncc[nH]1` [Example 132, N-methyl-N-(2-methyl-4-(6-(trifluoromethyl)quinazolin-2-yl)phenyl)-1H-imidazole-2-carboxamide], for which the half-inhibitory concentration (IC50) was under 200 nM.
The same measure for `Cc1c(NC(=O)c2ccnn2C)ccc(-c2ncc3nc(C(F)(F)F)ccc3n2)c1C` [Example 190, N-(2,3-dimethyl-4-(6-(trifluoromethyl)pyrido[3,2-d]pyrimidin-2-yl)phenyl)-1-methyl-1H-pyrazole-5-carboxamide]: 1000 to 10000 nM.
